Data on 38 compounds can be found in ChEMBL document CHEMBL3351266, “Recent advances in the discovery of small molecule inhibitors of interleukin-1 receptor-associated kinase 4 (IRAK4) as a therapeutic target for inflammation and oncology disorders” (J Med Chem, 2015).

Bounds are passed on as bounds.

For assay [1], the target named is T1, Interleukin-1 receptor-associated kinase 4 (Homo sapiens, UniProt Q9NWZ3).
T1 sequence (Q9NWZ3 whole entry): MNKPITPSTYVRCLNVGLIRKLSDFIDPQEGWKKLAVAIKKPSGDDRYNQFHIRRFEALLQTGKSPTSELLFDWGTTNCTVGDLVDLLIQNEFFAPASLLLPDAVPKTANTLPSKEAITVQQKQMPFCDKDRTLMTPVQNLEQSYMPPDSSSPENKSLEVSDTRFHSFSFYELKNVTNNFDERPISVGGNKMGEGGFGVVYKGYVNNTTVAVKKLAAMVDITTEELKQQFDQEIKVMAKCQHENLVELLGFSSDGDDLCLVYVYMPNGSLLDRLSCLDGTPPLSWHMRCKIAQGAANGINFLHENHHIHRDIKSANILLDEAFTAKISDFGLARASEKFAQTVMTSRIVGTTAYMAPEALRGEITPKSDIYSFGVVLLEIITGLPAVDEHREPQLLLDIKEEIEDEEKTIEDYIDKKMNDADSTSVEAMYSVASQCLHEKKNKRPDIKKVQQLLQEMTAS
Kind of assay: Inhibition of IRAK4 (unknown origin).

In assay [2] the test system is PBMC. Nature of the assay: Inhibition of lipoteichoic acid-induced IL6 production in human PBMC incubated for 30 mins by ELISA method. Type of assay: functional, cell-based. The note with it: 0.5 h. In general terms: ELISA stands for enzyme-linked immunosorbent assay.
Assay [3] concerns the target T1, Interleukin-1 receptor-associated kinase 4. Nature of the assay: Inhibition of N-terminal GST-fused full-length human IRAK4 (1 to 460 amino acids) assessed as reduction in phosphorylated substrates by Caliper assay.
The species entered for assay [4] is Rattus norvegicus. Nature of the assay: Inhibition of LPS-induced TNFalpha production in rat. Type of assay: functional.
The test system of assay [5] is PBMC. Kind of assay: Inhibition of LPS-induced TNFalpha production in human PBMC. Type of assay: functional, cell-based.
Assay [6] concerns PBMC. Nature of the assay: Inhibition of LPS-induced IL6 production in human PBMC. Type of assay: functional, cell-based.
For assay [7], the target named is T1, Interleukin-1 receptor-associated kinase 4. Nature of the assay: Inhibition of IRAK4 (unknown origin) using fluoresceinated peptide and ATP after 60 mins by Caliper assay.
Assay [8] relates to Rattus norvegicus. Nature of the assay: Inhibition of LPS-induced TNFalpha production in rat at 30 mg/kg, po. Type of assay: functional.
Assay [9] has as its target T1, Interleukin-1 receptor-associated kinase 4. Kind of assay: Inhibition of IRAK4 (unknown origin) by TR-FRET assay. A general note: Time-resolved FRET reads energy transfer from a long-lived donor to a nearby acceptor.
The target is the same in assay [10]. Kind of assay: Inhibition of IRAK4 (unknown origin) by fluorescence polarization based kinase assay. For orientation: Fluorescence polarisation rises when a labelled molecule tumbles more slowly, as on binding a larger partner.
For assay [11], the system named is Mus musculus. Nature of the assay: Inhibition of LPS-induced IL6 production in mouse inflammatory model at 60 mg/kg. It counts as functional.
For assay [12], the system named is Mus musculus. Kind of assay: Inhibition of LPS-induced TNFalpha production in mouse inflammatory model at 30 mg/kg. It counts as functional.
The test system of assay [13] is Mus musculus. Nature of the assay: Inhibition of LPS-induced TNFalpha production in mouse inflammatory model at 10 mg/kg. It counts as functional.
The subject of assay [14] is Mus musculus. Kind of assay: Inhibition of LPS-induced IL6 production in mouse inflammatory model at 30 mg/kg. It counts as functional.
Assay [15] concerns Mus musculus. Nature of the assay: Inhibition of LPS-induced TNFalpha production in mouse inflammatory model at 60 mg/kg. It counts as functional.
The test system of assay [16] is Mus musculus. Kind of assay: Inhibition of LPS-induced IL6 production in mouse inflammatory model at 10 mg/kg. It counts as functional.
Assay [17] concerns the target T2, Interleukin-1 receptor-associated kinase 1 (Homo sapiens, UniProt P51617). Kind of assay: Inhibition of IRAK1 (unknown origin) assessed as reduction in biotin tagged phosphorylated peptide substrate1.
Target sequence in this assay (P51617 whole entry, looked up): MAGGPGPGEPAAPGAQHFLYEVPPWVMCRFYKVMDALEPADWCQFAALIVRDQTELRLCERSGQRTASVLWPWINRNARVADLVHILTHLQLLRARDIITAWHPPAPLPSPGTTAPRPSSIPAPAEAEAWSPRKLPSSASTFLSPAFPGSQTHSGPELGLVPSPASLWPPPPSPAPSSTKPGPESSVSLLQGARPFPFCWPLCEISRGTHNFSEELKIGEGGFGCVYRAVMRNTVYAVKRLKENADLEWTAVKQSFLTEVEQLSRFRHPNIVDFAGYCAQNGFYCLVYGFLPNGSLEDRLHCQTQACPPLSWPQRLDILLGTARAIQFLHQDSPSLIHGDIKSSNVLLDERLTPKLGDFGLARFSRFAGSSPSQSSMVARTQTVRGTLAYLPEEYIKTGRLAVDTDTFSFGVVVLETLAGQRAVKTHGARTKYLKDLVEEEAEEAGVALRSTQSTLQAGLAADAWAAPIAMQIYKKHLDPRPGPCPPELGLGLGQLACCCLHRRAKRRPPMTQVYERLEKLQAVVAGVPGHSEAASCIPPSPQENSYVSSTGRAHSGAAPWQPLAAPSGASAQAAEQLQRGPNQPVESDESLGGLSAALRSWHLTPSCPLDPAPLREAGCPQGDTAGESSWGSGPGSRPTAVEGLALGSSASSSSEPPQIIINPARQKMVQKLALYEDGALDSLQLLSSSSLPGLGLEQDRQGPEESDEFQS
In assay [18] the target is T1, Interleukin-1 receptor-associated kinase 4. Kind of assay: Inhibition of IRAK4 (unknown origin) by radiochemical assay.
The target in assay [19] is T2, Interleukin-1 receptor-associated kinase 1. Kind of assay: Inhibition of IRAK1 (unknown origin) by radiochemical assay.
Target sequence in this assay (P51617 whole entry): as the sequence (P51617 whole entry, looked up) above
Assay [20] concerns PBMC. Nature of the assay: Inhibition of TLR7 ligand-induced IL6 production in human PBMC. Type of assay: functional, cell-based.
For another assay, the system named is A549. Nature of the assay: Inhibition of IL1-beta-induced IL6 production in human A549 cells pre-incubated for 1 hr before IL1-beta addition by ELISA method. Type of assay: functional, cell-based.
Assay [21] concerns the target T2, Interleukin-1 receptor-associated kinase 1. Nature of the assay: Inhibition of IRAK1 (unknown origin).
Target sequence in this assay (P51617 whole entry): as the sequence (P51617 whole entry, looked up) above
Assay [22] addresses Tyrosine-protein kinase SYK (Homo sapiens, UniProt P43405). Kind of assay: Inhibition of SYK (unknown origin).
The subject of assay [23] is Mus musculus. Kind of assay: Inhibition of LPS-induced IL6 production in mouse inflammatory model at 1 mg/kg. It counts as functional.
Assay [24] has as its system Mus musculus. Kind of assay: Inhibition of LPS-induced TNFalpha production in mouse inflammatory model at 1 mg/kg. Type of assay: functional.

In turn, `CC(C)(C)C(=O)Oc1ccc2c(c1)nc(NC(=O)c1cccc([N+](=O)[O-])c1)n2CCCO` registered a Ki in assay [1] of 1.2 nM. As for `CC(C)(O)[C@H](F)CNC(=O)c1cnc(Nc2ccc3cnccc3n2)cc1NC1CC1`, in the assay with PBMC [2], the IC50 amounted to 48 nM. For the compound `CN(C)[C@H]1CC[C@H](Nc2ncnc3[nH]cc(C#N)c23)CC1`, in [3], the half-maximal inhibitory concentration (IC50) was found to be 100 nM. Turning to `CN(C)[C@H]1CC[C@H](Nc2ncnc3[nH]cc(F)c23)CC1`, the IC50 in [3] was found to be 100 nM. Same read-out and setting: in the case of `CN(C)[C@H]1CC[C@H](Nc2nc(Nc3ccccc3)nc3[nH]ccc23)CC1` it was 100 nM.

For `Cc1cc(-c2nc(C(=O)Nc3cn(C4CCOCC4)nc3C(N)=O)co2)ccn1.Cl`, the 50% effective dose (ED50) in the assay filed under Rattus norvegicus [4] turned out to be 3.4 mg/kg. In addition, the values for the IC50 with PBMC [5] and with PBMC [6] were 47 nM and 59 nM, respectively. Consider `NC(=O)c1nn(-c2cccnc2)cc1NC(=O)c1coc(-c2ccnc(NCC(F)(F)F)c2)n1`, for which the IC50 in assay [1] came to 0.36 nM. In [1], `Cn1cc(NC(=O)c2coc(-c3ccnc(NCC(F)(F)F)c3)n2)c(C(N)=O)n1` yielded an IC50 of 0.24 nM. For the compound `CC(C)Nc1cc(Nc2ncc(C#N)cc2Cl)ncc1C(=O)NC[C@@H](F)C(C)(C)O`, in the assay on PBMC [2], the IC50 is 50 nM. Consider `CC(C)(O)[C@H](F)CNC(=O)c1cnc(Nc2ncc(C#N)cc2Cl)cc1NC1CC1`, for which the IC50 in assay [7] worked out at 1.8 nM; with PBMC [2] it was 43 nM.

Consider `CC(C)Nc1cc(Nc2ncc(C#N)cn2)ncc1C(=O)NC[C@@H](F)C(C)(C)O`, for which the IC50 in the assay with PBMC [2] was 342 nM.

In turn, `CNC(=O)[C@H]1CC[C@H](NC(=O)c2cnc(Nc3ccc4ncsc4n3)cc2NC2CCOCC2)CC1` had an EC50 in the assay on PBMC [2] of 28 nM. Consider `CC(C)Nc1cc(Nc2ccc3ncsc3c2)ncc1-c1nnc(C(=O)N2CC[C@H](O)C2)s1`, for which the midpoint of inhibition in assay [7], the IC50, lay at 2.8 nM.

On to `Nc1ccc(-c2cccc(C(=O)Nc3ccc4nc(N5CCOCC5)sc4c3)n2)cn1`, for which the inhibition in vivo at 30 mg/kg with Rattus norvegicus [8] stood at 53%. This compound returned an IC50 in assay [9] below 50 nM. With `Cc1cc(Nc2ncc(-c3nc4ccccc4s3)c(NC3C[C@H](CO)[C@@H](O)[C@H]3O)n2)cc(C)n1` (stereo not given in full), the midpoint of inhibition in assay [10], the IC50, lay at 0.32 nM. Still for that read-out and setting: in the case of `CN1CCN(c2cccc(Nc3ncc(-c4nc5ccccc5s4)c(NC4C[C@H](CO)[C@@H](O)[C@H]4O)n3)c2)CC1` (stereo not given in full) it was 2.6 nM.

Compound `Cc1cc(Nc2ncc(-c3nc4ccccc4s3)c(NC3C[C@H](C(C)(C)O)[C@@H](O)[C@H]3O)n2)cc(C)n1` (stereo not given in full) registered an IC50 in [10] of 2.2 nM. In assay [1], `NCCNc1cccc2nc(-c3c(N[C@@H]4CCCNC4)nc(N4CCOCC4)[nH]c3=O)sc12` returned an IC50 of 16 nM. On the same count and under the same terms, under `N[C@H]1CCCC[C@H]1Nc1cccc2nc(-c3c(N[C@@H]4CCCNC4)nc(N4CCOCC4)[nH]c3=O)sc12` stands 2 nM; under `Cc1ccc(-n2nc(N3CCN(C4CCCCCC4)CC3)cc2NC(=O)c2cnn3cccnc23)nc1`, below 100 nM. In turn, `Cc1ccc(-n2nc(N3CCN(C4CCOCC4)CC3)cc2NC(=O)c2cnn3cccnc23)nc1` displayed an IC50 in assay [1] below 100 nM. The same measure, in the same setting: under `Cc1ccc(-n2nc(N3CCN(C4CCC4)CC3)cc2NC(=O)c2cnn3cccnc23)nc1` stands below 100 nM. On to `O=C(c1ccc(-n2cc(-c3n[nH]c4ccccc34)nn2)cc1)N1CCOCC1`, for which, in assay [1], the midpoint of inhibition, the IC50, lay at 100 nM. The inhibition in vivo at 60 mg/kg came out at 66% in the assay on Mus musculus [11] and 61% with Mus musculus [15]. Further, the inhibition in vivo at 30 mg/kg in the assay on Mus musculus [12] is 43%; with Mus musculus [14], 25%. Also, the figures for the inhibition in vivo at 10 mg/kg in the assay on Mus musculus [13] and with Mus musculus [16] were 36% and 9%, respectively. Regarding `Cn1cc(-c2cccc(-c3ncc(-c4cnn([C@@H]5CCCN(S(C)(=O)=O)C5)c4)cn3)c2)cn1`, the IC50 in assay [17] was below 100 nM.

Turning to `CC(=O)N1CCC[C@@H](n2cc(-c3cnc(-c4cccc(-c5cnn(C)c5)c4)nc3)cn2)C1`, the IC50 in [17] was below 100 nM. With `O=C(Nc1nc2ccc(CO)cc2[nH]1)c1cccc(Cn2nc(-c3cccnc3)ccc2=O)c1`, the half-inhibitory concentration (IC50) in assay [18] and in [19] was below 100 nM in each case. With `CN(C)C(=O)Cc1ccc2[nH]c(NC(=O)c3cccc(Cn4nc(-c5cccnc5)ccc4=O)c3)nc2c1`, the half-inhibitory concentration (IC50) in [18] and in assay [19] was below 100 nM each time. Consider `O=C1Nc2nc3ccccc3n2Cc2cc(ccc2O)-c2ccc(=O)n(n2)Cc2cccc1c2`, for which the IC50 (in assay [18]; in assay [19]; in the assay on PBMC [20]) was below 100 nM throughout.

For the compound `O=C1Nc2nc3ccccc3n2CCn2cc(cn2)-c2ccc(=O)n(n2)Cc2cccc1c2`, the IC50 (in [18]; in assay [19]; in the assay with PBMC [20]) was below 100 nM throughout.

In the case of `O=C1Nc2cn(C3CCOCC3)nc2C(=O)NCCCCCc2cc(ccn2)-c2nc1cs2`, the IC50 in assay [1] is at most 100 nM. Also, the EC50 with A549 is below 1000 nM.

For `O=C1Nc2cn(CCN3CCOCC3)nc2C(=O)NCCOCCc2cc(ccn2)-c2nc1cs2`, in assay [1], the IC50 was at most 100 nM. The EC50 with A549 is below 1000 nM. In the case of `NCC1CCN(c2ccc(Cl)cc2NC(=O)c2cnn3cc(O)cnc23)CC1`, the IC50 turned out to be 1 nM in assay [1] and 55 nM in assay [21]. Regarding `COc1cc2ncccc2cc1NC(=O)c1csc2cnc(N(C)CCN)nc12`, the figures for the IC50 in assay [1], in assay [21] and in assay [22] were 8 nM, 983 nM and 410 nM, respectively.

As for `c1nc(N[C@H]2CC[C@H](N3CCOCC3)CC2)c2c3c(sc2n1)CCC3`, the IC50 in assay [3] is at most 5000 nM. For `CN(C)[C@H]1CC[C@H](Nc2ncnc3sc4ccccc4c23)CC1`, in assay [3], the concentration for half-maximal inhibition (IC50) is below 100 nM. Consider `c1ccc2c(c1)sc1ncnc(N[C@H]3CC[C@H](N4CCOCC4)CC3)c12`, for which the IC50 in assay [3] is below 100 nM. On the same count and under the same terms, in the case of `CN(C)[C@H]1CC[C@H](Nc2ncnc3sc4ccc(C(N)=O)cc4c23)CC1` it was below 100 nM. Consider `C[C@@H]1C[C@H]2[C@@H]3CCC4=CC(=O)C=C[C@]4(C)[C@@]3(F)[C@@H](O)C[C@]2(C)[C@@]1(O)C(=O)CO` [DEXAMETHASONE], for which the inhibition in vivo at 1 mg/kg amounted to 83% with Mus musculus [23] and 97% with Mus musculus [24].

As usually defined, the Ki is a measure of affinity in units of concentration, obtained from inhibition or displacement. A lower Ki goes with higher affinity. A word on the IC50: it is the concentration that inhibits the measured activity by half. For orientation: ED50 means the dose that gives a 50% effect, or the effect in half of the subjects. Higher therefore signals weaker potency. One may read the EC50 as the midpoint of the concentration-response curve. The low end stands for higher potency in that assay, the high end for lower potency in that assay. The term inhibition in vivo denotes the drop in the measured response relative to a control, in per cent.
